Values quoted from earlier work as cited in PMC4696931 (Advanced healthcare materials, 2015).

How the values were obtained:
MMP2 [1] = settings: linker peptide alone
MMP2 [2] = settings: PEG hydrogels with the peptide as crosslinker

SGESPAY↓YTA [NRL1]
reported kcat KM^−1 for MMP2 (MMP2 [1]): 440000 M⁻¹ s⁻¹ | time to degradation of hydrogels crosslinked with the sequence in MMP2 (MMP2 [2]): ~ 1 days
